The results in this text go back to publication PMC6978363, “Chaperone mediated detection of small molecule target binding in cells” (Nature Communications, 2020).

The assay deals with T1, c-RAF (Homo sapiens, UniProt P04049).
T1 construct: gene RAF1
Kind of assay: c-RAF protein level change by immunofluorescence in A549 cells (with and without 17-AAG). In kind it is cell-based.

T1 sequence (P04049 whole entry): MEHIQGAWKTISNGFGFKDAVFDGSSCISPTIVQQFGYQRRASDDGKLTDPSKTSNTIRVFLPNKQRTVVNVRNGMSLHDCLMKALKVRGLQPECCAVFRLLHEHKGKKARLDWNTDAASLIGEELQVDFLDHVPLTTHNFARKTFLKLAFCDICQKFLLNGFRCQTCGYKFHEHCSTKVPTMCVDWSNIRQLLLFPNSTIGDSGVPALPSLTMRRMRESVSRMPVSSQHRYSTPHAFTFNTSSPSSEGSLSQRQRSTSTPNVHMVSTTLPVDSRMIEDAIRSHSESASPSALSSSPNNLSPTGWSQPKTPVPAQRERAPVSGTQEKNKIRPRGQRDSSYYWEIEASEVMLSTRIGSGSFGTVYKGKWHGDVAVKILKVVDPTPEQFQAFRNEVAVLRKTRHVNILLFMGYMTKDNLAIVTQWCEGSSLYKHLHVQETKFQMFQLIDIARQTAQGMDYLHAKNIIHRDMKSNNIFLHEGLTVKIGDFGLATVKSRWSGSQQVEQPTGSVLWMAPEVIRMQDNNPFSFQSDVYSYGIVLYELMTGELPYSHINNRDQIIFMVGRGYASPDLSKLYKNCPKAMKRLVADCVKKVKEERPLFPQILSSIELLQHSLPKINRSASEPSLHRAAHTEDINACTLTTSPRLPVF

With `Cc1ccc(NC(=O)c2ccnc(C(F)(F)F)c2)cc1-c1cc(N2CCOCC2)nc(N2CC(O)C2)c1` [Novartis pan-RAF inhibitor], the “c-RAF protein level change by immunofluorescence in A549 cells (with and without)” value is “The interactions between c-RAF and these inhibitors are examples of a small molecule causing a direct effect on protein abundance”.
